Tests used:
[1] = tested on: partially purified peroxidase; experiment: Oxidation of lignin substructure model compounds by partially purified peroxidase; format: biochemical, Streptomyces viridosporus T7A; details: 0.02% (wt/vol) model compound, hydrogen peroxide, pH 5.5, 37° C., 18 hours
Method: The model compounds were added to reaction mixtures at a final concentration of 0.02% (wt/vol). Reactions were carried out in a total volume of 3.0 ml, containing 0.1 mM hydrogen peroxide or a peroxide generating system consisting of 0.02 units/ml of glucose oxidase (Sigma) and 3 mM glucose 0.1M sodium tartrate buffer (pH 5.5) and 300 μl of enzyme preparation. Control reactions were performed with boiled enzyme preparation. Some reaction mixtures were flushed with oxygen and all were incubated at 37° C. for 18 hours on a shaker in slanting tubes. The reaction mixtures were then acidified to pH 2-3 with 12M HCl and extracted once with ether and once with ethyl acetate. […]
HPLC was performed on a Hewlett-Packard 1090A high pressure liquid chromatograph employing a HP-1040A diode array detector. During each run, chromatograms for 258, 280, and 310 nm were recorded and the ultraviolet (UV) absorbance spectrum (250-350 nm) of each peak was recorded at its front side, apex, and trailing side. […]
Only veratraldehyde, anisaldehyde and vanillin were detected by HPLC, GC, and GC/MS. Guaiacol, formed in trace amounds, was detected by HPLC, GC, and GC/MS. Small amounts of products (IV) and (V) were detected only by MS fragmentation. […]

Peroxidase P3 [2] = tested on: Peroxidase P3
Method: Peroxidase activity was routinely assayed with 2,4-dichlorophenol (2,4-DCP) (Sigma) as substrate. A final volume of 1.0 ml of reaction mixture contained 100 mM sodium succinate buffer (pH 5.5), 82 mM 4-aminoantipyrine(Sigma), 1.0 mM 2,4-dichlorophenol, 4.0 mM hydrogen peroxide and 100 μl of enzyme preparation. The reaction was initiated by the addition of hydrogen peroxide and the increase in A510 was monitored for one minute at 37° C. One unit of enzyme was expressed as the amount of enzyme required for an increase of 1.0 absorbance unit per min.

Peroxidase P3 [3] = details: inhibitor at final concentration lmM
Method: Enzyme activity was also assayed using L-3,4-dihydroxyphenylalanine (L-DOPA; Sigma) as substrate.

Row | Compound | Oxidation of the model compound by the peroxidase (bond cleaved) [1] | Inhibition of the enzyme (2,4-DCP and L-DOPA oxidizing activities), in words (Peroxidase P3 [2]; 1 mM concentration) | % inhibition of peroxidase P3 activity, substrate 2,4,-DCP (Peroxidase P3 [2]; inhibitor at final concentration lmM) | Specific activity, substrate 2,4,-DCP, with inhibitor (Peroxidase P3 [2]; inhibitor at final concentration lmM, partially purified P3) | % inhibition of peroxidase P3 activity, substrate L-DOPA (Peroxidase P3 [3]) | Specific activity, substrate L-DOPA, with inhibitor (Peroxidase P3 [3]; partially purified P3)
1 | COc1ccc(C(=O)Cc2ccccc2)cc1 [III, 1-(4-methoxyphenyl)-2-(phenyl)ethan-1-one] | cleaved between the Cαand Cβcarbons |  |  |  |  | 
2 | COc1ccc(C(O)C(CO)Oc2ccccc2OC)cc1OC (stereo not shown) [I, 1-(3,4-Dimethoxyphenyl)-2-(2-methoxyphenoxy)propane-1,3-diol] | cleaved at the Cα -Cβ bond |  |  |  |  | 
3 | [N-]=[N+]=[N-] [sodium azide] |  | inhibited | 83% | 0.18 Units/mg protein | 41% | 0.18 Units/mg protein

Source: patent US5200338A, “Bacterial extracellular lignin peroxidase” (Idaho Research Foundation, Incorporation, priority 1988, dated 1993)
